Results published in patent US20220305003A1, “METHODS OF TREATING CANCER WITH AN INHIBITOR OF ZNF827” (CHILDREN'S MEDICAL RESEARCH INSTITUTE, priority 2019, published 2022).

Columns and labels:
U-2 OS cells = assay: Comet assay (tail moment); format: cell-based
Protocol: Comet assays were performed using the CometAssay® kit (Trevigen) according to the manufacturer's protocol with minor modifications. Briefly, cells were counted and resuspended in PBS. 20 μl of cells at 1×10^5/mL were combined with molten LMAgarose (Trevigen) at 37° C. The cell mixture was pipetted onto the sample area of a prewarmed slide (CometSlide™, Trevigen). Slides were cooled at 4° C. in the dark for 25 minutes, and then immersed in ice-cold lysis solution (CometAssay® kit, Trevigen) at 4° C. overnight. On the following day, slides were removed from lysis solution and gently immersed in ice-cold 1× neutral electrophoresis buffer ([…]) for 30 minutes. Slides were then electrophoresed in 1× neutral electrophoresis buffer ([…]) for 45 minutes at 1 V/cm. Following electrophoresis, slides were immersed in DNA precipitation solution (1 M ammonium acetate in 95% ethanol) for 30 minutes at room temperature. Slides were then transferred and immersed in 70% ethanol for 30 minutes at room temperature. Slides were then dried for 15 minutes at 37° C., incubated with 1 μM YOYO stain (Invitrogen) for 5 minutes, and Prolong Gold Antifade (Invitrogen) and stored at 4° C. until microscope analysis.

[1] = target: T1, ZNF827 SUMOylation mutant (Homo sapiens, UniProt Q17R98 SEQ:4-1079); assay: EMSA; positive control; 0.8 mM ZnCl2, 100 mM KCl, poly(dI:dC), on ice; settings: tags: HaloTag (pHTN), expressed in HEK 293T, tag removed by HaloTEV cleavage; label: 32P (gamma)
T1 chain: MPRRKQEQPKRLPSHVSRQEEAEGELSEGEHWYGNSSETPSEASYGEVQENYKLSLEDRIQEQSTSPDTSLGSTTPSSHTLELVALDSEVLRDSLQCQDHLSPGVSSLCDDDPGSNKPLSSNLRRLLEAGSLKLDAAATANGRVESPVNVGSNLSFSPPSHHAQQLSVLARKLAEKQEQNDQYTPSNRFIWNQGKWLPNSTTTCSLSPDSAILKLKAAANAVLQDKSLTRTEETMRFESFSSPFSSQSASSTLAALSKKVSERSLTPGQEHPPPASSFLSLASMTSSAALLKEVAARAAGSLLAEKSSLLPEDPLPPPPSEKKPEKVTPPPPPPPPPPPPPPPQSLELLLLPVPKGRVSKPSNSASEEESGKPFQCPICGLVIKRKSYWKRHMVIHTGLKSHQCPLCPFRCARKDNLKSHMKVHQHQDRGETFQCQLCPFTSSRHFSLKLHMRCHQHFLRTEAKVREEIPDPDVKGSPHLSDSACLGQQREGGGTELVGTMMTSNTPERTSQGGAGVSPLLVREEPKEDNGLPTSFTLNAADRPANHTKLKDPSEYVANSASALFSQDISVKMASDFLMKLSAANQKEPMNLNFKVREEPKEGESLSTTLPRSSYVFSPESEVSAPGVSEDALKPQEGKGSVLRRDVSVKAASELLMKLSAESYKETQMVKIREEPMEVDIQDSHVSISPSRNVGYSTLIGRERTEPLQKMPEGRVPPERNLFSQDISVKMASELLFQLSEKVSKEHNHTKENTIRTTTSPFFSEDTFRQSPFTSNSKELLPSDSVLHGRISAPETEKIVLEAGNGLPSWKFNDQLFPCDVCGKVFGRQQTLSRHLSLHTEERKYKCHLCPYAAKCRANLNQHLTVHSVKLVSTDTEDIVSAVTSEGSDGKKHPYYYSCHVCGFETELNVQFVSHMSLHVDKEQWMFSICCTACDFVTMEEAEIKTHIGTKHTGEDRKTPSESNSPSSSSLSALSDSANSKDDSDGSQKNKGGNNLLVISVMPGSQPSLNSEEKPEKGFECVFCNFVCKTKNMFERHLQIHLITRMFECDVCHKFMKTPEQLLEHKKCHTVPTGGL
Protocol: Purified proteins were quantified using a BCA assay using the Pierce™ BCA Protein Assay Kit according to the manufacturer's instructions. Equal amounts of purified proteins were incubated in binding buffer (20 mM HEPES-KOH, pH7.9, 100 mM KCl, 0.8 mM ZnCl₂, 0.2 mM EDTA, 5% glycerol, 0.5 mM DTT and 0.5 mM PMSF) with 6.25 μg/mL poly (dI:dC) and 50 ng/μL BSA on ice for 20 minutes. ˜0.12 nM (˜2.5 fmol) γ-³²P labelled DNA oligonucleotide (see Table 3) probes were added to samples and incubated on ice for another 30 minutes. Binding reactions were loaded onto an 8% native acrylamide/bisacrylamide (19:1, Biorad) gel pre-run at 100V in 0.5× TB buffer (89 mM Tris, 89 mM boric acid) for 20 minutes. Gels were electrophoresed at 150 V for 150 minutes at 4° C., dried at 65° C. for 45 minutes, and then exposed to a Phosphor screen overnight. Gel images were obtained by scanning the screens with a Typhoon FLA9500 Imager (GE Life Sciences).
To identify which zinc fingers are required for DNA binding activity, zinc finger mutants with either one or both zinc finger clusters deleted were also generated and purified (FIG. 1). Purified proteins were validated by HaloTag® TMR ligand detection and western blot analysis. Mass spectrometry (MS) analysis also confirmed the specificity of the HaloTag protein purification method. […]

Molecule | DNA damage measured as tail moment (U-2 OS cells; 72 hr siRNA knockdown alone (DMSO)) | DNA damage measured as tail moment (U-2 OS cells; 72 hr siRNA knockdown in conjunction with topotecan 2 μg/mL 24 hr) | binding result [1]
siZNF827: Stealth RNAi siRNA ZNF827HSS135819 duplex oligoribonucleotides (Invitrogen), SEQ ID NO: 12 and 13 (chain 1 GGGCAGUCUUCUGGCUGAGAAAUCA; chain 2 UGAUUUCUCAGCCAGAAGACUGCCC; listed as RNA, further chemistry not given here) | caused DNA damage measured as tail moment to a similar extent as topotecan treatment | further increased the amount of DNA damage | –
TTAGGGTTAGGGTTAGGG (ssDNA) [ss telomeric G rich oligo] | – | – | binds
